Test results from patent publication US20170114070A1, “INHIBITORS OF THE WNT SIGNALLING PATHWAYS” (Bayer Pharma Aktiengesellschaft, priority 2014, published 2017).

How the values were obtained:
[1] = tested on: constitutive active Wnt pathway (HCT116 TOPFlash); experiment: Cellular reporter assay, HCT116 Super TopFlash (constitutive active Wnt pathway); type: cell-based; settings: Homo sapiens, HCT-116; HCT116 stably transfected with Super TopFlash vector; 36 hours incubation; luciferase expression
Description: In order to discover and characterize small molecules which inhibit the constitutive active colorectal cancer cell (CRC) Wnt pathway, a cellular reporter assay was employed. The corresponding assay cell was generated by transfection of the colorectal cancer cell line HCT116 (ATCC, #CCL-247) with the Super TopFlash vector (Morin, Science 275, 1997, 1787-1790; Molenaar et al., Cell 86 (3), 1996, 391-399). The HCT116 cell line is cultivated at 37° C. and 5% CO2 in DMEM/F-12 (Life Technologies, #11320-074), supplemented with 2 mM glutamine, 20 mM HEPES, 1.4 mM pyruvate, 0.15% Na-bicarbonate and 10% foetal bovine serum (GIBCO, #10270), this cancer cell line is pathophysiological relevant since it carries a deletion of position S45 in the β-catenin gene, leading to constitutive active Wnt signaling. Stable transfectants were generated by cotransfection with pcDNA3 and selection of stable transfected cells with 1 mg/ml G418.
(§1) In a parallel approach, HCT116 cells were cotransfected with the FOP control vector and pcDNA3. The FOP vector is identical to the TOP construct, but it contains instead of functional TCF elements a randomized, non-functional sequence. For this transfection a stable transfected cell line was generated as well.
(§2) In preparation of the assay, the two cell lines were plated 24 hours before at 10000 cells per well of a 384 micro titre plate (MTP) in 30 μL growth medium. Selective inhibitory activity for small molecules on the mutated Wnt pathway was determined after parallel incubation of both (TOP and FOP) HCT116 reporter cell lines with a compound dilution series from 50 μM to 15 nM in steps of 3.16-fold dilutions in CAFTY buffer (130 mM NaCl, 5 mM KCl, 20 mM HEPES, 1 mM MgCl2, 5 mM NaHCO3, pH 7.4) containing 2 mM Ca^2+ and 0.01% BSA. The compounds were thereby serially prediluted in 100% DMSO and thereafter in addition 50 fold into the CAFTY compound dilution buffer (described above). From this dilution 10 μL were added to the cells in 30 μL growth medium and incubated for 36 hours at 37° C. and 5% CO2. Thereafter luciferase assay buffer (1:1 mixture of luciferase substrate buffer (20 mM Tricine, 2.67 mM MgSO4, 0.1 mM EDTA, 4 mM DTT, 270 μM Coenzyme A, 470 μM Luciferin, 530 μM ATP, ph adjusted to pH 7.8 with a sufficient volume of 5M NaOH) and Triton buffer (30 mL Triton X-100, 115 mL glycerol, 308 mg Dithiothreitol, 4.45 g Na2HPO4.2H2O, 3.03 g TRIS HCl, ad 1 l H20, pH 7.8) was added as equal volume to the compound solution on the cells to determine luciferase expression as a measure of Wnt signaling activity in a luminometer.

[2] = tested on: HCT116 FOPFlash (FOP control vector, non-functional TCF elements); experiment: Cellular control reporter assay, HCT116 FOP control vector; type: cell-based; settings: Homo sapiens, HCT-116; HCT116 stably transfected with FOP control vector; 36 hours incubation; luciferase expression; dilution series from 50 μM
Description: as §1, §2

SMILES	IC50 [1]	IC50 [2]
CN1CCN(CC(=O)Nc2cc(C(=O)Nc3cnc(-c4ccccc4F)cn3)ccc2OC(F)(F)F)CC1 [Example 41, N-[5-(2-fluorophenyl)pyrazin-2-yl]-3-{[(4-methylpiperazin-1-yl)acetyl]amino}-4-(trifluoromethoxy)benzamide]	225 nM	≥ 50 µM
O=C(CN1CCOCC1)Nc1cc(C(=O)Nc2ccc(-c3cncnc3)nn2)ccc1OC(F)(F)F [Example 15, 3-[(morpholin-4-ylacetyl)amino]-N-[6-(pyrimidin-5-yl)pyridazin-3-yl]-4-(trifluoromethoxy)benzamide]	636 nM	≥ 50 µM
CN1CCN(CC(=O)Nc2cc(C(=O)Nc3cnc(-c4ccccc4Cl)cn3)ccc2OC(F)(F)F)CC1 [Example 44, N-[5-(2-chlorophenyl)pyrazin-2-yl]-3-{[(4-methylpiperazin-1-yl)acetyl]amino}-4-(trifluoromethoxy)benzamide]	16800 nM	≥ 50 µM
CN1CCN(CC(=O)Nc2cc(C(=O)Nc3ccc(-c4ccccc4)nn3)ccc2OC(F)(F)F)CC1 [Example 9, 3-{[(4-methylpiperazin-1-yl)acetyl]amino}-N-(6-phenylpyridazin-3-yl)-4-(trifluoromethoxy)benzamide]	29.7 nM	≥ 50 µM
O=C(CN1CCN(CC(F)F)CC1)Nc1cc(C(=O)Nc2ccc(-c3ccccc3)nn2)ccc1OC(F)(F)F [Example 5, 3-({[4-(2,2-difluoroethyl)piperazin-1-yl]acetyl}amino)-N-(6-phenylpyridazin-3-yl)-4-(trifluoromethoxy)benzamide]	205 nM	≥ 50 µM
Nc1ncc(-c2ccc(NC(=O)c3ccc(OC(F)(F)F)c(NC(=O)CN4CCOCC4)c3)nn2)cn1 [Example 13, N-[6-(2-aminopyrimidin-5-yl)pyridazin-3-yl]-3-[(morpholin-4-ylacetyl)amino]-4-(trifluoromethoxy)benzamide]	67.2 nM	≥ 50 µM
CN1CCN(CC(=O)Nc2cc(C(=O)Nc3cnc(-c4cnc(N)nc4)cn3)ccc2OC(F)(F)F)CC1 [Example 37, N-[5-(2-aminopyrimidin-5-yl)pyrazin-2-yl]-3-{[(4-methylpiperazin-1-yl)acetyl]amino}-4-(trifluoromethoxy)benzamide]	223 nM	≥ 50 µM
O=C(CN1CCOCC1)Nc1cc(C(=O)Nc2cnc(-c3cncnc3)cn2)ccc1OC(F)(F)F [Example 26, 3-[(morpholin-4-ylacetyl)amino]-N-[5-(pyrimidin-5-yl)pyrazin-2-yl]-4-(trifluoromethoxy)benzamide]	58 nM	≥ 50 µM
Cc1cccc(F)c1-c1cnc(NC(=O)c2ccc(OC(F)(F)F)c(NC(=O)CN3CCN(C)CC3)c2)cn1 [Example 29, N-[5-(2-fluoro-6-methylphenyl)pyrazin-2-yl]-3-{[(4-methylpiperazin-1-yl)acetyl]amino}-4-(trifluoromethoxy)benzamide]	16700 nM	≥ 50 µM
CN1CCN(CC(=O)Nc2cc(C(=O)Nc3cnc(-c4cnccn4)cn3)ccc2OC(F)(F)F)CC1 [Example 54, N-(2,2′-bipyrazin-5-yl)-3-{[(4-methylpiperazin-1-yl)acetyl]amino}-4-(trifluoromethoxy)benzamide]	1350 nM	≥ 50 µM
CN1CCN(CC(=O)Nc2cc(C(=O)Nc3ccc(-c4cncnc4)nn3)ccc2OC(F)(F)F)CC1 [Example 2, 3-{[(4-methylpiperazin-1-yl)acetyl]amino}-N-[6-(pyrimidin-5-yl)pyridazin-3-yl]-4-(trifluoromethoxy)benzamide]	162 nM	≥ 50 µM
O=C(CN1C[C@@H]2C[C@H]1CO2)Nc1cc(C(=O)Nc2ccc(-c3ccccc3)nn2)ccc1OC(F)(F)F [Example 8, 3-{[(1S,4S)-2-oxa-5-azabicyclo[2.2.1]hept-5-ylacetyl]amino}-N-(6-phenylpyridazin-3-yl)-4-(trifluoromethoxy)benzamide]	125 nM	≥ 50 µM
O=C(CN1CCOCC1)Nc1cc(C(=O)Nc2cnc(-c3cccc(F)c3)cn2)ccc1OC(F)(F)F [Example 63, N-[5-(3-fluorophenyl)pyrazin-2-yl]-3-[(morpholin-4-ylacetyl)amino]-4-(trifluoromethoxy)benzamide]	16000 nM	≥ 50 µM
